Laboratory results as given in publication PMC10608878, “Synthesis and Antiproliferative Activity of 2,6-Disubstituted Imidazo[4,5-b]pyridines Prepared by Suzuki Cross Coupling” (Molecules, 2023).
Like-named read-outs stand apart in the source and are kept apart here.

Legend:
in vitro [1] = conditions: human
[2] = test system: human coronavirus HCoV-NL63; assay: Antiviral CPE assay, HCoV-NL63 in Hep3B; type: cell-based; conditions: Hep3B host cells
[3] = test system: human coronavirus HCoV-OC43; assay: Antiviral CPE assay, HCoV-OC43 in HEL 299; type: cell-based; conditions: HEL 299 host cells
[4] = test system: respiratory syncytial virus (RSV) A; assay: Antiviral CPE assay, RSV in Hep-2; type: cell-based; conditions: human respiratory syncytial virus; Hep-2 host cells
in vitro [5] = conditions: human; remark: listed apart in the source
[6] = test system: human coronavirus HCoV-229E; assay: organism not typed; type: cell-based, human coronavirus 229E; conditions: HEL 299 host cells; read-out: Antiviral Activity (EC50) HCoV 229E HEL 299
[7] = test system: herpes simplex virus-1 (HSV-1 KOS); assay: Antiviral CPE assay, HSV-1 in HEL 299; type: cell-based; conditions: HEL 299 host cells
in vitro [8] = conditions: human; remark: listed apart in the source
VeroE6 cells = conditions: read-out: Cytotoxicity (CC50) Vero E6; uninfected Vero E6 cells
yellow fever virus (YFV) = assay: microbe, parasite or virus in culture; type: cell-based
[9] = test system: Semliki Forest virus (SFV); assay: Antiviral CPE assay, SFV in VeroE6; type: cell-based; conditions: VeroE6 host cells
Sindbis virus (SINDV) = assay: Antiviral CPE assay, SINDV in VeroE6; type: cell-based; conditions: VeroE6 host cells
HEL 299 cells = conditions: read-out: Cytotoxicity (CC50) HEL 299; uninfected HEL 299 cells
Zika virus (ZIKV) = assay: Antiviral CPE assay, ZIKV in VeroE6; type: cell-based; conditions: VeroE6 host cells
[10] = test system: Z-138 non-Hodgkin lymphoma cells; assay: Antiproliferative activity, Z-138 cells; type: cell-based, human; conditions: Homo sapiens, Z-138, 72 h, Z-138, 72 h incubation
Experimental: (§1) All prepared imidazo[4,5-b]pyridines were tested for their antiproliferative activity against the following cancer cell lines: LN-229—glioblastoma, Capan-1—pancreatic adenocarcinoma, HCT-116—colorectal carcinoma, NCI-H460—lung carcinoma, DND-41—acute lymphoblastic leukemia, HL-60—acute myeloid leukemia, K-562—chronic myeloid leukemia, and Z-138—non-Hodgkin lymphoma cancer cells. An overview of the results is presented in Table 2 as IC50 values (50% inhibitory concentration). An established antitumor drug, etoposide (ETO), was included for comparison.
(§2) For proliferation assays, the human cancer cell lines used in this manuscript, namely Capan-1, HCT-116, NCI-H460, LN-229, HL-60, K-562, and Z-138, were acquired from the American Type Culture Collection (ATCC, Manassas, VA, USA), while the DND-41 cell line was purchased from the Deutsche Sammlung von Mikroorganismen und Zellkulturen (DSMZ Leibniz-Institut, Braunschweig, Germany). Culture media were purchased from Gibco (Gibco Life Technologies, Merelbeke, Belgium) and supplemented with 10% fetal bovine serum (HyClone, Cytiva, Marlborough, MA, USA). Adherent cell lines LN-229, HCT-116, NCI-H460, and Capan-1 cells were seeded in 384-well tissue culture plates (Greiner, Kremsmünster, Austria) at a density between 500 and 1500 cells per well (500 cells per well for Capan-1, 1000 cells per well for LN-229 and HCT-116, and 1500 cells per well for NCI-H460). The cells were treated with seven different concentrations of the test compounds in a 5-fold dilution series ranging from 100 to 0.006 µM after overnight incubation. Suspension cell lines HL-60, K-562, Z-138, and DND-41 were seeded at densities ranging from 2500 to 5500 cells per well (2500 cells per well for HL-60, K-562, and Z-138, and 5500 cells per well for DND-41) in 384-well culture plates containing the test compounds at the same concentration points. All conditions were incubated for 72 h before measuring the cell viability by the CellTiter 96® AQueous Non-Radioactive Cell Proliferation Assay (Promega, Madison, WA, USA) according to the manufacturer’s instructions. After 3 h, absorbance of all conditions was measured at 490 nm using a SpectraMax Plus 384 (Molecular Devices, San Jose, CA, USA), and the OD values were used to calculate the 50% inhibitory concentration (IC50). Compounds were tested in two independent experiments.

[11] = test system: LN-229 glioblastoma cells; assay: Antiproliferative activity, LN-229 cells; type: cell-based, human; conditions: Homo sapiens, LN-229, 72 h, LN-229, 72 h incubation
Experimental: as §1, §2

[12] = test system: Capan-1 pancreatic adenocarcinoma cells; assay: Antiproliferative activity, Capan-1 cells; type: cell-based, human; conditions: Homo sapiens, CAPAN-1, 72 h, Capan-1, 72 h incubation
Experimental: as §1, §2

[13] = test system: DND-41 acute lymphoblastic leukemia cells; assay: Antiproliferative activity, DND-41 cells; type: cell-based, human; conditions: Homo sapiens, DND41, 72 h, DND-41, 72 h incubation
Experimental: as §1, §2

[14] = test system: K-562 chronic myeloid leukemia cells; assay: Antiproliferative activity, K-562 cells; type: cell-based, human; conditions: Homo sapiens, K562, 72 h, K-562, 72 h incubation
Experimental: as §1, §2

[15] = test system: NCI-H460 lung carcinoma cells; assay: Antiproliferative activity, NCI-H460 cells; type: cell-based, human; conditions: Homo sapiens, NCI-H460, 72 h, NCI-H460, 72 h incubation
Experimental: as §1, §2

[16] = test system: HL-60 acute myeloid leukemia cells; assay: Antiproliferative activity, HL-60 cells; type: cell-based, human; conditions: Homo sapiens, HL-60, 72 h, HL-60, 72 h incubation
Experimental: as §1, §2

[17] = test system: HCT-116 colorectal carcinoma cells; assay: Antiproliferative activity, HCT-116 cells; type: cell-based, human; conditions: Homo sapiens, HCT-116, 72 h, HCT-116, 72 h incubation
Experimental: as §1, §2

[18] = test system: influenza A/H3N2 (A/HK/7/87); assay: Antiviral CPE assay, influenza A/H3N2 in MDCK; type: cell-based; conditions: Influenza A virus, MDCK host cells
in vitro [19] = conditions: dog
[20] = test system: influenza A/H1N1 (A/Ned/378/05); assay: Antiviral CPE assay, influenza A/H1N1 in MDCK; type: cell-based; conditions: Influenza A virus, MDCK host cells
in vitro [21] = conditions: African green monkey
[22] = test system: influenza B (B/Ned/537/05); assay: Antiviral CPE assay, influenza B in MDCK; type: cell-based; conditions: Influenza B virus; MDCK host cells
NCI-H460 cells = assay: Cell cycle progression, NCI-H460 cells; type: cell-based, human
Source text: (§3) Lastly, the effects of lead compound 19 on the cell cycle progression of three cancer cell lines, namely HEp-2, NCI-H460, and LN-229, were explored.
(§4) Figure 7 The effects of lead compound 19 on cell cycle progression of NCI-H460 (left), LN-229 (middle), and Hep-2 (right) cells.

host cell lines = host cell lines of the antiviral assays
[23] = test system: normal peripheral blood mononuclear cells (PBMC); assay: Toxicity in normal peripheral blood mononuclear cells; type: cell-based
Source text: Figure 6 Toxicity of compounds 13 and 19 in normal cells.

LN-229 cells = assay: Cell cycle progression, LN-229 cells; type: cell-based, human
Source text: as §3, §4

human cancer cell lines = assay: Antiproliferative activity, panel of human cancer cell lines; type: cell-based
Experimental: as §1, §2

HEp-2 cells = assay: Cell cycle progression, HEp-2 cells; type: cell-based, human
Source text: as §3, §4

[24] = most/majority of the tested cancer cell lines, read-out: IC50 range against most of the tested cell lines

| SMILES | CC50 (in vitro [1]) [µM] | EC50 [2] [µM] | EC50 ([3]; Betacoronavirus 1, OC43) [µM] | EC50 [4] [µM] | CC50 (in vitro [5]) [µM] | EC50 [6] [µM] | EC50 ([7]; Human alphaherpesvirus 1) [µM] | CC50 (in vitro [8]) [µM] | IC50 [10] [µM] | IC50 [11] [µM] | IC50 [12] [µM] | IC50 [13] [µM] | IC50 [14] [µM] | IC50 [15] [µM] | IC50 [16] [µM] | IC50 [17] [µM] | Cytotoxicity on host cell lines (host cell lines) | Effect on viability of PBMC ([23]; 10 µM) | Effect on viability of PBMC ([23]; 100 µM (highest dose tested)) | IC50 (human cancer cell lines; [24]) [µM] | also measured |
| --- | --- | --- | --- | --- | --- | --- | --- | --- | --- | --- | --- | --- | --- | --- | --- | --- | --- | --- | --- | --- | --- |
| CCC(CC)COC(=O)[C@H](C)N[P@](=O)(OC[C@H]1O[C@@](C#N)(c2ccc3c(N)ncnn23)[C@H](O)[C@@H]1O)Oc1ccccc1 [Remdesivir, remdesivir] | > 10 | 0.2 | 0.06 | 0.006 | > 10 | 0.2 | > 10 | > 10 | – | – | – | – | – | – | – | – | – | – | – | – | – |
| CCOC(=O)[C@H]1O[C@@H]1C(=O)N[C@@H](CC(C)C)C(=O)NCCC(C)C [Compound E64d] | – | – | – | – | – | 2 | – | – | – | – | – | – | – | – | – | – | – | – | – | – | CC50 (VeroE6 cells): > 100 µM; EC50 (yellow fever virus (YFV); VeroE6 host cells, read-out: Antiviral Activity (EC50) YFV VeroE6): > 100 µM; EC50 [9]: > 100 µM; EC50 [3]: 3.9 µM; EC50 (Sindbis virus (SINDV)): > 100 µM; CC50 (HEL 299 cells): > 100 µM; EC50 (Zika virus (ZIKV)): 27.8 µM; EC50 [7]: > 100 µM |
| Cn1c(-c2ccccc2)nc2cc(-c3ccc(C(N)=O)cc3)cnc21 [Compound 22, 4-(3-methyl-2-phenyl-3H-imidazo[4,5-b]pyridin-6-yl)benzamide] | – | – | – | – | – | – | – | – | 58.1 | > 100 | > 100 | > 100 | > 100 | > 100 | 70.9 | > 100 | – | – | – | – | melting point: > 300 °C |
| N#Cc1ccc(-c2cnc3[nH]c(-c4ccccc4)nc3c2)cc1 [Compound 15, 4-(2-phenyl-3H-imidazo [4,5-b]pyridin-6-yl)benzonitrile] | > 50 | > 50 | > 50 | > 50 | > 50 | 31.3 | > 50 | > 50 | 34.4 | 79.2 | 10.8 | > 100 | > 100 | > 100 | 37.2 | > 100 | – | – | – | – | EC50 [18]: 39.5 µM; EC50 (yellow fever virus (YFV); Yellow fever virus, Vero C1008, read-out: Antiviral Activity (EC50) YFV VeroE6): > 50 µM; EC50 ([9]; Semliki Forest virus, Vero C1008): > 50 µM; CC50 (in vitro [19]): > 50 µM; EC50 (Sindbis virus (SINDV); Sindbis virus, Vero C1008): > 50 µM; EC50 (Zika virus (ZIKV); Zika virus, Vero C1008): > 50 µM; EC50 [20]: 33.5 µM; CC50 (in vitro [21]): > 50 µM; EC50 [22]: 34.5 µM |
| Cn1c(-c2ccccc2)nc2cc(-c3ccc(O)cc3)cnc21 [Compound 19, 4-(3-methyl-2-phenyl-3H-imidazo [4,5-b]pyridin-6-yl)phenol] | – | – | – | – | – | – | – | – | 1.45 | 1.77 | 1.9 | 1.57 | 1.5 | 2.83 | 3.3 | 2.32 | cytotoxicity was observed on all host cell lines, with the exception of the non-cancerous HEL 229 cells | little to no effect | negatively impacted the viability | 1.45 to 4.25 | Effect on cell cycle progression (NCI-H460 cells): strong accumulation of cells in the G2/M phase; Effect on cell cycle progression (LN-229 cells): strong accumulation of cells in the G2/M phase; IC50 (human cancer cell lines; Capan-1, LN-229, DND-41, K-562 and Z-138 cell lines, read-out: IC50 range, lowest inhibitory concentrations): 1.45 to 1.9 µM; Effect on cell cycle progression (HEp-2 cells): strong accumulation of cells in the G2/M phase |
| Oc1ccc(-c2cnc3[nH]c(-c4ccccc4)nc3c2)cc1 [Compound 13, 4-(2-phenyl-3H-imidazo [4,5-b]pyridin-6-yl)phenol] | – | – | – | – | – | – | – | – | 1.87 | 4.1 | 1.5 | 4.25 | 3.42 | 4.25 | 1.65 | 3.94 | cytotoxicity was observed on all host cell lines, with the exception of the non-cancerous HEL 229 cells | little to no effect | negatively impacted the viability | 1.45 to 4.25 | IC50 (human cancer cell lines; Capan-1, HL-60 and Z-138 cell lines, read-out: IC50 range, particularly strong inhibition): 1.5 to 1.87 µM |
